Laboratory results published in publication PMC12298648, “An Evaluation of the Cytotoxicity and Safety Profile of Usnic Acid for a Broad Panel of Human Cancers and Normal Cells with Respect to Its Enantiospecificity” (Molecules, 2025).
≈ marks a conversion by molar mass, not a printed value. Like-named read-outs stand apart in the source and are kept apart here.

Key:
[1] = system: HaCaT keratinocytes; set-up: method as in PMID 34500657; conditions: cited from earlier work
[2] = system: A172; set-up: method as in PMID 34959693; conditions: cited from earlier work
[3] = system: PNT2; assay: MTT viability assay, normal prostate epithelial cells; format: cell-based, human; conditions: for IC50: Homo sapiens; for Cell viability: PNT2, 24 h
Text: (§1) Cell lines of different origins were used in the study and grouped as follows: prostate panel (human prostate carcinomas: DU145, derived from metastatic site: brain; grade IV PC3, derived from metastatic site: bone; LNCaP, derived from the metastatic site: lymph node; prostate epithelial, PNT2), colon panel (colorectal adenocarcinomas: HT29, originating from a primary tumor; Duke’s type C DLD-1, with the potential to lymph node metastasis; highly metastatic HCT116; colon epithelial cells CCD 841 CoN), thyroid panel (follicular thyroid carcinoma FTC133, anaplastic thyroid carcinoma 8505C, papillary thyroid carcinoma TPC-1, normal thyroid follicular epithelial Nthy-ori 3–1), breast panel (ER-positive breast adenocarcinoma MCF7, ER-negative breast adenocarcinoma MDA-MB-231, breast epithelial MCF10A), brain panel (neuroblastoma SH-SY5Y, glioblastoma U-87 MG, murine astrocytes C8D1A). All cell lines were purchased from Merck (Darmstadt, Germany).
(§2) Cells were grown under standard conditions (37 °C, 5% CO2) and culture media (DMEM/F12 for PNT2, PC3, FTC133, 8505 C, MDA-MB-231, TPC-1; DMEM Low Glucose for DU145; DMEM High Glucose for HCT116, DLD-1, SH-SY5Y, U87MG, C8D1A; MEM with NEAA for MCF7; MEM for CCD 841 CoN; McCoy’s for HT29; RPMI1640 with sodium pyruvate for LNCaP; DMEM/F12 with 20 ng/mL epidermal growth factor (EGF), 10 μg/mL insulin, 0.5 μg/mL hydrocortisone, 100 ng/mL cholera toxin) for MCF10A), supplemented with 10% fetal bovine serum (FBS) or 5% donor horse serum for MCF10A, and 1% antibiotics solution (10,000 U penicillin and 10 mg streptomycin/mL). The tested substances were prepared as 10 mg/mL stock solutions in DMSO and further diluted in the culture media to the working concentrations. Cells were treated with UA enantiomers at the concentration range of 0–50 µg/mL. The influence of DMSO on cell viability was also examined, with the final concentration […], and no toxic effect was noted.
(§3) The cells were seeded onto 96-well plates at a density of 1.5 × 10^4 cells/well. After 24 h UA enantiomers were added. Cell viability was determined after 24, 48, and 72 h by the MTT assay, as described previously. Doxorubicin was used as a reference cytostatic drug. All analyses were performed in triplicate; cell viability was expressed as % of control, untreated cells (mean ± SD), and IC50 values (concentration at which cell viability is inhibited by 50%), if possible.

[4] = system: DLD-1; assay: MTT viability assay, DLD-1 colon cancer cells; format: cell-based, human; conditions: for Cell viability: DLD-1, 24 h; for IC50: Homo sapiens
Text: as §1, §2, §3

[5] = system: T98G; set-up: method as in PMID 34959693; conditions: cited from earlier work
[6] = system: TPC-1; assay: MTT viability assay, TPC-1 papillary thyroid carcinoma cells; format: cell-based, human; conditions: for IC50: Homo sapiens, TPC1; for selectivity index (SI): IC50 Nthy ori 3-1 / IC50 TPC-1, 72 h; for Cell viability: TPC-1, 24 h
Text: as §1, §2, §3
The selectivity index (SI) was calculated, if possible, by dividing the IC50 value obtained for non-cancerous cells line by the IC50 values obtained for appropriate cancer cell line, as described previously. […] The values above 3 indicate good selectivity.

[7] = system: SH-SY5Y neuroblastoma cells; conditions: cited from earlier work
[8] = system: HCT116 cells; conditions: cited from earlier work
[9] = system: MDA-MB-231 cells; conditions: cited from earlier work
[10] = system: A375 cells; set-up: method as in PMID 34577645; conditions: A375, 48 h; cited from earlier work
[11] = system: DLD1 cells; conditions: DLD1, 48 h, cited from earlier work
[12] = system: HTB140 cells; set-up: method as in PMID 34577645; conditions: HTB140, 48 h (implied); cited from earlier work
[13] = system: LNCaP cells; set-up: method as in PMID 30101414; conditions: 48 h, cited from earlier work
[14] = system: U87MG cells; conditions: cited from earlier work; for CC50: 24 h
[15] = recalculated from µM by the authors

Structure (SMILES): CC(=O)C1=C(O)C=C2Oc3c(C(C)=O)c(O)c(C)c(O)c3[C@]2(C)C1=O [UA(−), (−)-usnic acid]
- IC50 ([1]; 48 h): 80.82 µg/mL (≈ 235 µM)
- IC50 ([1]; 72 h): 70.12 µg/mL (≈ 204 µM)
- IC50 [2]: 31.5 µg/mL (≈ 91.5 µM)
- IC50 ([3]; PNT2, 48 h): 35.4 µg/mL (≈ 103 µM)
- IC50 ([3]; PNT2, 72 h): 27.8 µg/mL (≈ 80.7 µM)
- Cell viability ([3]; 2.5 µg/mL): 103.40 % of control
- Cell viability ([3]; 5 µg/mL): 99.24 % of control
- Cell viability ([3]; 10 µg/mL): 91.32 % of control
- Cell viability ([3]; 20 µg/mL): 83.13 % of control
- Cell viability ([3]; 30 µg/mL): 74.58 % of control
- Cell viability ([3]; 40 µg/mL): 68.75 % of control
- Cell viability ([3]; 50 µg/mL): 54.38 % of control
- Cell viability ([4]; 2.5 µg/mL): 100.75 % of control
- Cell viability ([4]; 5 µg/mL): 97.99 % of control
- Cell viability ([4]; 10 µg/mL): 92.05 % of control
- Cell viability ([4]; 20 µg/mL): 81.25 % of control
- Cell viability ([4]; 30 µg/mL): 78.35 % of control
- Cell viability ([4]; 40 µg/mL): 77.75 % of control
- Cell viability ([4]; 50 µg/mL): 77.98 % of control
- IC50 ([4]; DLD-1, 48 h): 44.3 µg/mL (≈ 129 µM)
- IC50 ([4]; DLD-1, 72 h): 15.4 µg/mL (≈ 44.7 µM)
- IC50 [5]: 13 µg/mL (≈ 37.8 µM)
- IC50 ([6]; TPC-1, 48 h): > 50 µg/mL
- IC50 ([6]; TPC-1, 72 h): 39.2 µg/mL (≈ 114 µM)
- selectivity index (SI) [6]: 0.74
- Cell viability ([6]; 2.5 µg/mL): 96.85 % of control
- Cell viability ([6]; 5 µg/mL): 104.40 % of control
- Cell viability ([6]; 10 µg/mL): 96.79 % of control
- Cell viability ([6]; 20 µg/mL): 93.49 % of control
- Cell viability ([6]; 30 µg/mL): 91.95 % of control
- Cell viability ([6]; 40 µg/mL): 92.26 % of control
- Cell viability ([6]; 50 µg/mL): 92.38 % of control

Structure (SMILES): CC(=O)C1=C(O)C=C2Oc3c(C(C)=O)c(O)c(C)c(O)c3[C@@]2(C)C1=O [UA(+), (+)-usnic acid]
- IC50 ([3]; PNT2, 48 h): 37.4 µg/mL (≈ 109 µM)
- IC50 ([3]; PNT2, 72 h): 20.4 µg/mL (≈ 59.2 µM)
- Cell viability ([3]; 5 µg/mL): 101.11 % of control
- Cell viability ([3]; 10 µg/mL): 104.00 % of control
- Cell viability ([3]; 20 µg/mL): 96.96 % of control
- Cell viability ([3]; 30 µg/mL): 68.67 % of control
- Cell viability ([3]; 40 µg/mL): 59.70 % of control
- Cell viability ([3]; 50 µg/mL): 56.52 % of control
- Cell viability ([7]; at 2 µg/mL): 42%
- Cell viability ([7]; at 10 µg/mL): 57%
- IC50 ([8]; HCT116, 48 h, recalculated from µM by the authors): 34.4 µg/mL
- IC50 ([8]; HCT116, 48 h, read-out: IC50): 100 µM
- IC50 ([8]; HCT116, 72 h, recalculated from µM by the authors): 49.24 µg/mL
- IC50 ([8]; HCT116, 72 h, read-out: IC50): 143 µM
- Cell viability ([4]; 2.5 µg/mL): 96.51 % of control
- Cell viability ([4]; 5 µg/mL): 89.29 % of control
- Cell viability ([4]; 10 µg/mL): 75.63 % of control
- Cell viability ([4]; 20 µg/mL): 82.11 % of control
- Cell viability ([4]; 30 µg/mL): 71.08 % of control
- Cell viability ([4]; 40 µg/mL): 68.28 % of control
- Cell viability ([4]; 50 µg/mL): 68.46 % of control
- IC50 ([4]; DLD-1, 48 h): 26.1 µg/mL (≈ 75.8 µM)
- IC50 ([4]; DLD-1, 72 h): 19.6 µg/mL (≈ 56.9 µM)
- IC50 ([9]; MDA-MB-231, 24 h, recalculated from µM by the authors): 13.23 µg/mL
- IC50 ([9]; MDA-MB-231, 24 h, read-out: IC50): 38.4 µM
- IC50 ([9]; MDA-MB-231, 72 h, recalculated from µM by the authors): 4.5 µg/mL
- IC50 ([9]; MDA-MB-231, 72 h, read-out: IC50): 13.1 µM
- IC50 [10]: 11.84 µg/mL (≈ 34.4 µM)
- IC50 [11, 15]: 34.4 µg/mL
- IC50 ([11]; read-out: IC50): 100 µM
- IC50 [12]: 14.72 µg/mL (≈ 42.8 µM)
- IC50 ([13]; read-out: IC50): 77.5 µM
- IC50 [13, 15]: 26.7 µg/mL
- CC50 ([14]; read-out: CC50): 47 µM
- CC50 [14, 15]: 16 µg/mL
- IC50 ([14]; 48 h): 41.5 µg/mL (≈ 121 µM)
- IC50 ([6]; TPC-1, 48 h): > 50 µg/mL
- IC50 ([6]; TPC-1, 72 h): 28.2 µg/mL (≈ 81.9 µM)
- selectivity index (SI) [6]: 1.18
- Cell viability ([6]; 2.5 µg/mL): 101.62 % of control
- Cell viability ([6]; 5 µg/mL): 105.96 % of control
- Cell viability ([6]; 10 µg/mL): 105.31 % of control
- Cell viability ([6]; 20 µg/mL): 97.02 % of control
- Cell viability ([6]; 30 µg/mL): 95.96 % of control
- Cell viability ([6]; 40 µg/mL): 91.23 % of control
- Cell viability ([6]; 50 µg/mL): 87.50 % of control
